These are literature values, as cited in patent US20170158776A1, “TREATMENT OF LUNG CANCER USING A COMBINATION OF AN ANTI-PD-1 ANTIBODY AND ANOTHER ANTI-CANCER AGENT” (Bristol-Myers Squibb Company, priority 2014, published 2017).

In this data set the test system is EGFR MT NSCLC. Particulars: first-line treatment of EGFR MT NSCLC; cited from earlier work.

In the case of `C#Cc1cccc(Nc2ncnc3cc(OCCOC)c(OCCOC)cc23)c1` [erlotinib], the “median progression-free survival (PFS)” value is recorded as 10.4 months.
